Values joined by “and” are separate entries in the source; they are usually repeats but may differ in a detail not shown here. Identical values can stand only once. Like-named read-outs stand apart in the source and are kept apart here.
Legend:
[1] = molecular target: KMO (Rattus norvegicus, UniProt O88867); experiment: Inhibition of KMO; format: biochemical; conditions: read-out: IC50 for KMO
[2] = format: in vivo, mice; conditions: 5 h
[3] = Ro 61-8048 levels in plasma and tissues of chronically JM6-treated R6/2 mice; format: in vivo
[4] = Metabolic stability of Ro 61-8048; format: in vitro ADME; conditions: data not shown
[5] = tested on: KMO; experiment: In vivo microdialysis in striatum and serum sampling of rats after acute JM6; conditions: for Level in brain dialysate: JM6 100 mg/kg p.o., data not shown
[6] = tested on: KMO; experiment: In vivo microdialysis in prefrontal cortex of rats treated 7 days with JM6; conditions: JM6 for 7 days, 100 mg/kg/day p.o. (legend: 75 mg/kg/day)
[7] = tested on: APPtg mice; experiment: Morris water maze in APPtg mice; format: in vivo
[8] = tested on: APPtg mice; experiment: Elevated plus maze in APPtg mice; format: in vivo; conditions: JM6 75 mg/kg/day p.o. for ~120 days
[9] = tested on: APPtg mice; experiment: Neuropathology; format: in vivo
[10] = tested on: APPtg mice; format: in vivo; conditions: JM6 75 mg/kg/day p.o. for 120 days
[11] = tested on: R6/2 mice; experiment: Survival, body weight and rotarod in R6/2 mice; format: in vivo; conditions: chronic JM6 p.o., data not shown
[12] = tested on: WT mice; experiment: Chronic tolerability of JM6 in WT mice; format: in vivo; conditions: JM6 25 mg/kg/day p.o. for 12 months, data not shown
[13] = tested on: R6/2 mice; experiment: Neuropathology; format: in vivo
[14] = molecular target: kynurenine aminotransferase II (KAT II) (Rattus norvegicus, UniProt Q64602); experiment: Reverse microdialysis of the KAT II inhibitor ESBA in JM6-treated rats; format: in vivo; conditions: JM6 100 mg/kg p.o., ESBA 1 mM locally for 2 h by reverse microdialysis
kynurenine aminotransferase II (KAT II), sequence (Q64602 30-425): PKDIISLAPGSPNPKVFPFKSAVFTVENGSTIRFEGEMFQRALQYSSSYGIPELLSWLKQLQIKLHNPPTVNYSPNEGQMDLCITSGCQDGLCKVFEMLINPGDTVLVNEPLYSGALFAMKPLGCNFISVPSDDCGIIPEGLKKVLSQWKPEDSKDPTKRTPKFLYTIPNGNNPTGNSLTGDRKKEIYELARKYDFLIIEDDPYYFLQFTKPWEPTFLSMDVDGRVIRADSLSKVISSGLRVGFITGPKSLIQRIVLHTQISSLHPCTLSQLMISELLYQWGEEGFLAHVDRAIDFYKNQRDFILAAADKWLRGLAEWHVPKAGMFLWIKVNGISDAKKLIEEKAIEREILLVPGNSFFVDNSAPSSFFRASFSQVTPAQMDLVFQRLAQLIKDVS

[15] = WT mice, single JM6 300 mg/kg p.o., LC/MS
[16] = R6/2 mice chronically treated with JM6
[17] = WT mice, single JM6 300 mg/kg p.o., LC/MS, 300 mg/kg
[18] = JM6 75 mg/kg/day p.o., data not shown
[19] = JM6 7.5 or 25 mg/kg/day p.o., 12-week-old mice

KMO (Rattus norvegicus, UniProt O88867), sequence (O88867 whole entry): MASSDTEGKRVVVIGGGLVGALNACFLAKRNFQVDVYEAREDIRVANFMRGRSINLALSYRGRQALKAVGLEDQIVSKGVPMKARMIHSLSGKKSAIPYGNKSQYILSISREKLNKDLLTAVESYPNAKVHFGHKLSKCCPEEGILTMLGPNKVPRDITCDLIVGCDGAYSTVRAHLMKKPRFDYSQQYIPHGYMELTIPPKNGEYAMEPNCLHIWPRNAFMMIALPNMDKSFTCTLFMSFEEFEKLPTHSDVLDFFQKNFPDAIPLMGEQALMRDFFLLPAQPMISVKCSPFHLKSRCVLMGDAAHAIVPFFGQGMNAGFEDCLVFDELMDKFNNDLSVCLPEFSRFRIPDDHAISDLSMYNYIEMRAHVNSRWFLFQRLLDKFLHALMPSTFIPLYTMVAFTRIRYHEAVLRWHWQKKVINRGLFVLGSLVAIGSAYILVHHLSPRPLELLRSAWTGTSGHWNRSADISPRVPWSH

COc1ccc(S(=O)(=O)Nc2nc(-c3cccc([N+](=O)[O-])c3)cs2)cc1OC [Ro 61-8048, 3,4-dimethoxy-[-N-4-(nitrophenyl)thiazol-2yl]-benzenesulfonamide]
IC50 [1]: 0.037 µM | Muscle and liver levels after acute dosing ([2]; WT mice, JM6 300 mg/kg p.o.): negligible | Ro 61-8048 released from JM6, brain level as % of plasma levels ([2]; WT mice, single JM6 300 mg/kg p.o.): 0.002% | Ro 61-8048 released from JM6, concentration in brain [2, 15]: 18 nM and 18 ± 5 nM | Ro 61-8048 released from JM6, concentration in plasma [2, 15]: 7 µM and 7.2 ± 0.8 µM | Ro 61-8048 released from JM6, concentration in liver ([2]; mice, JM6 300 mg/kg p.o.): 132 nM | Ro 61-8048 released from JM6, concentration in muscle ([2]; mice, JM6 300 mg/kg p.o.): 149 nM | Plasma concentration relative to IC50 for KMO [3, 16]: more than eightfold | Ro 61-8048 released from JM6, concentration in plasma [3, 16]: ~ 280 nM | Ro 61-8048 released from JM6 in brain or muscle homogenates ([3]; R6/2 mice chronically treated with JM6, data not shown): could not be detected | Metabolic stability [4]: metabolically unstable | Level in brain dialysate [5]: < 10 nM

COc1ccc(S(=O)(=O)Nc2nc(-c3cccc([N+](=O)[O-])c3)c(CN3CCCCC3)s2)cc1OC [JM6, 2-(3,4-dimethoxybenzenesulfonylamino)-4-(3-nitrophenyl)-5-(piperidin-1-yl)methylthiazole]
Muscle and liver levels after acute dosing ([2]; WT mice, JM6 300 mg/kg p.o.): negligible | JM6 concentration in brain [2, 17]: 119 ± 46 nM | JM6 concentration in plasma [2, 17]: 39.1 ± 13.2 µM | Extracellular glutamate levels in the brain (prefrontal cortex) [6]: significant reduction | Spatial memory in Morris water maze, WT mice ([7]; JM6 75 mg/kg/day p.o.): no effect | Spatial memory in Morris water maze, APPtg mice ([7]; JM6 75 mg/kg/day p.o. from 2 months of age, tested at ~6 months): significant improvement | Spatial learning in WT or APPtg mice [7, 18]: did not influence | Increase in distance traveled in the open arm of the EPM, APPtg mice [8]: significantly attenuated | Time spent in the open arm of the elevated plus maze, APPtg mice [8]: not significantly different from WT littermate controls | Total distance traveled in the EPM (open and closed arm), APPtg mice [8]: not changed | Synaptic loss (synaptophysin) in cortex and hippocampus, APPtg mice ([9]; JM6 75 mg/kg/day p.o. for 120 days, ~7 months of age): prevented | Aβ plaque load in hippocampus and cortex, APPtg mice [9, 18]: did not have a significant effect | Brain 3-HK levels, APPtg mice, vs control mice [10]: not significantly different | Brain KMO activity, APPtg mice, vs control mice [10]: not significantly different | Brain KYNA levels, APPtg mice [10]: increased | Brain QUIN levels, APPtg mice, vs control mice [10]: not significantly different | Plasma KYNA levels, APPtg mice [10]: increased | Plasma QUIN levels, APPtg mice, vs control mice [10]: not significantly different | Body weight of R6/2 mice [11]: did not influence | Performance on accelerating rotarod, R6/2 mice ([11]; early stages of disease): modestly improved | Adverse effects on open field behavior, motor performance, or body weight [12]: no adverse effects | Inclusion body size or abundance in frontoparietal cortex, R6/2 mice ([13]; JM6 25 mg/kg/day p.o. from 4 weeks of age, EM48 immunostaining): did not influence | Iba1-positive cells (microglia) vs vehicle-treated controls, R6/2 mice ([13]; JM6 7.5 or 25 mg/kg/day p.o. from 4 weeks of age): significantly fewer | Fos immunoreactivity in striatum and cortex, R6/2 mice [13, 19]: prevented the loss | Synaptophysin in striatum and cortex, R6/2 mice [13, 19]: prevented the loss | Level in brain dialysate [5]: < 10 nM | Serum KYNA level, % of baseline ([5]; single JM6 100 mg/kg p.o., by 5 h): 344% | Extracellular KYNA level in brain (striatum), % of baseline ([5]; single JM6 100 mg/kg p.o., by 5 h, microdialysis): 180%

CCS(=O)(=O)c1ccc(C(=O)C[C@H](N)C(=O)O)cc1.Cl [ESBA, (S)-(4-ethylsulfonyl)benzoylalanine hydrochloride]
Effect on JM6-induced increases in brain KYNA [14]: prevented completely | Effect on KYNA levels in serum [14]: unaffected

Source: paper PMC3118409 (Cell, 2011)
